pIC50: −log10 of the molar value. Where two headings read alike, the source gives them in different places.
Target: T1, Urease Purified from Proteus mirabilis (Pr-91) (Proteus mirabilis, UniProt P17086)
T1 construct: host or cells: Proteus mirabilis (Pr-91)
Experiment: Inhibition of urease purified from Proteus mirabilis (Pr-91)
Format: biochemical
Text: The Inhibition of Urease Purified from Proteus mirabilis (Pr-91)
Concentration of Compounds of Formula [drawing 5] for 50% Inhibition of Urease.

T1 sequence (P17086 whole entry): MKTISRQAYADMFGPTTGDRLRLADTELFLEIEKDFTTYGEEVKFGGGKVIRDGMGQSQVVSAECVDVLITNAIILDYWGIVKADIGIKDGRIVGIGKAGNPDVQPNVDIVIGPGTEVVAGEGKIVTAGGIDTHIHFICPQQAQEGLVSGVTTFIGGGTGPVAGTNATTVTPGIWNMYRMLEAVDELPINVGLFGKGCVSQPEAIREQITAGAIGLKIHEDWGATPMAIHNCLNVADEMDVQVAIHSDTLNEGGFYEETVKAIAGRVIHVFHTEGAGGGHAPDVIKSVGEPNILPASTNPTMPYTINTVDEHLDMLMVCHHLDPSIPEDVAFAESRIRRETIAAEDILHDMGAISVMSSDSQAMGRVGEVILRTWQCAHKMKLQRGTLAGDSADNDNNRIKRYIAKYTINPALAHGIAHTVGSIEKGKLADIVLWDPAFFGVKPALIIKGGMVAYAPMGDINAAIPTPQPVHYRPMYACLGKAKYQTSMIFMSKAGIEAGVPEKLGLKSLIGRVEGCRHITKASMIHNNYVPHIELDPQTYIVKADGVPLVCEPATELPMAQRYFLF
T1 sequence (P17088 whole entry, further chain): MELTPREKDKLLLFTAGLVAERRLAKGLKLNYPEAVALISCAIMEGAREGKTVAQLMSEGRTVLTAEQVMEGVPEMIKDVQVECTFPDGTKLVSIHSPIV
T1 sequence (P17087 whole entry, further chain): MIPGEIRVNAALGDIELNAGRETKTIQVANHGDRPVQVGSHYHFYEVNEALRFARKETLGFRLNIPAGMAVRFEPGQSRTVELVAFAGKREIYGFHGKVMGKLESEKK

| SMILES | pIC50 | pIC50 (urease purified from Proteus mirabilis (Pr-91), read-out: Concentration of compound for 50% inhibition of urease) |
| --- | --- | --- |
| NP(N)(=O)Nc1ccc([N+](=O)[O-])cc1 [4-Nitrophenyl, N-(4-Nitrophenyl)phosphorotriamide] | 6.46 |  |
| NP(N)(N)=O [H] |  | 6.92 |
| N#Cc1ccc(NP(N)(N)=O)cc1 [4-Cyanophenyl, N-(4-Cyanophenyl)phosphorotriamide] | 4.30 |  |
| Nc1ccc(NP(N)(N)=O)cc1 [4-Aminophenyl, N-(4-Aminophenyl)phosphorotriamide] | 4.80 |  |
| NP(N)(=O)Nc1ccccc1 [Phenyl] | 4.89 |  |
| NP(N)(=O)Nc1cccc(C(F)(F)F)c1 [3-Trifluoromethylphenyl, N-[3-(Trifluoromethyl)phenyl]phosphorotriamide] | 4.40 |  |

From patent US4242325A, “Phosphorotriamides as urease inhibitors” (priority 1979, dated 1980)
